The values below come from US20240139260A1, “MICROBIAL STRAIN COMPOSITIONS” (MICROBIAL DISCOVERY GROUP, LLC, priority 2022, published 2024).

Test [1] has as its system Bacillus strain BC1 (NRRL No. B-67744). The experiment in a line: Antibiotic resistance, phenotypic MICs of medical antibiotics. The note with it: for MIC: Bacillus. It counts as cell-based, Bacillus coagulans.
Test [2] relates to Bacillus strain (NRRL No. B-68054). The experiment in a line: Antibiotic resistance, Minimum Inhibitory Concentrations (MICs) Against Medical Antibiotics. It counts as cell-based, Bacillus subtilis. The text has this: The inventors have assessed resistance phenotypically. A bacterial strain is defined by EFSA as susceptible when its growth is inhibited at concentration of a specific antibiotic that is equal to or lower than the established cut-off value for that particular species. A bacterial strain is defined as resistant when it is able to grow at a concentration of a specific antibiotic that is higher than the established cut-off. The inventors utilized both the EFSA and CLSI guidelines for determining susceptibility and resistance interpreted through their defined cut-off values.

In test [3] the test system is Bacillus strain (NRRL No. B-68053). Described as above. It counts as cell-based, Bacillus subtilis. The text has this:
The inventors have assessed resistance phenotypically. A bacterial strain is defined by EFSA as susceptible when its growth is inhibited at concentration of a specific antibiotic that is equal to or lower than the established cut-off value for that particular species. A bacterial strain is defined as resistant when it is able to grow at a concentration of a specific antibiotic that is higher than the established cut-off. We utilized both the EFSA and CLSI guidelines for determining susceptibility and resistance interpreted through their defined cut-off values.

Where [4] appears, read: NRRLB67744, MIC of the antibiotic against the strain, triplicate, read-out: NRRL No. B-67744 ug/ml (triplicate).
The mark [5] stands for this setting: Bacillus, NRRLB68054; read-out: NRRL No. B-68054 ug/mL (triplicate), Minimum Inhibitory Concentration.
Setting [6] is: Bacillus, NRRLB68053; read-out: NRRL No. B-68053 ug/mL (triplicate), Minimum Inhibitory Concentration.
The mark [7] stands for this setting: Bacillus, NRRLB68054, read-out: NRRL No. B-68054 ug/mL (triplicate), Minimum Inhibitory Concentration.
The mark [8] stands for this setting: Bacillus, NRRLB68053, read-out: NRRL No. B-68053 ug/mL (triplicate), Minimum Inhibitory Concentration.

In brackets after ≈: the same amount, converted by molar mass. Like-named read-outs stand apart in the source and are kept apart here.

As for `O=C(N[C@H](CO)[C@H](O)c1ccc([N+](=O)[O-])cc1)C(Cl)Cl` [Chloramphenicol], the MIC was 0.016 µg/mL in test [1] (setting [4]), 1.5 µg/mL (≈ 4.64 µM) in test [2] (setting [5]) and 3 µg/mL (≈ 9.28 µM) in test [3] (setting [6]).

With `O=C(O)c1cn(C2CC2)c2cc(N3CCNCC3)c(F)cc2c1=O` [Ciprofloxacin], in test [3] (setting [6]), the MIC is 0.94 µg/mL (≈ 2.84 µM).

For the molecule `CCC[C@@H]1C[C@@H](C(=O)N[C@@H]([C@H]2O[C@H](SC)[C@H](O)[C@@H](O)[C@H]2O)[C@H](C)Cl)N(C)C1` [Clindamycin], the values for the MIC in test [1] (setting [4]), in test [2] (setting [5]) and in test [3] (setting [6]) were 0.016 µg/mL, 0.5 µg/mL (≈ 1.18 µM) and 1 µg/mL (≈ 2.35 µM), respectively.

With `CC[C@H]1OC(=O)[C@H](C)[C@@H](O[C@H]2C[C@@](C)(OC)[C@@H](O)[C@H](C)O2)[C@H](C)[C@@H](O[C@@H]2O[C@H](C)C[C@H](N(C)C)[C@H]2O)[C@](C)(O)C[C@@H](C)C(=O)[C@H](C)[C@@H](O)[C@]1(C)O` [Erythromycin], the MIC turned out to be 0.125 µg/mL in test [1] (setting [4]), 0.047 µg/mL (≈ 0.064 µM) in test [2] (setting [5]) and 0.064 µg/mL (≈ 0.0872 µM) in test [3] (setting [6]).

With `NC[C@H]1O[C@H](O[C@H]2[C@H](O)[C@@H](O[C@H]3O[C@H](CO)[C@@H](O)[C@H](N)[C@H]3O)[C@H](N)C[C@@H]2N)[C@H](O)[C@@H](O)[C@@H]1O` [Kanamycin], the MIC was found to be 0.016 µg/mL in test [1] (setting [4]), 0.75 µg/mL (≈ 1.55 µM) in test [2] (setting [5]) and 0.75 µg/mL (≈ 1.55 µM) in test [3] (setting [6]).

Consider `CC(=O)NC[C@H]1CN(c2ccc(N3CCOCC3)c(F)c2)C(=O)O1` [Linezolid], for which the MIC in test [1] (setting [4]) turned out to be 0.75 µg/mL; in test [2] (setting [5]) it was 0.25 µg/mL (≈ 0.741 µM); in test [3] (setting [6]), 1 µg/mL (≈ 2.96 µM).

With `CO[C@H]1/C=C/O[C@@]2(C)Oc3c(C)c(O)c4c(O)c(c(/C=N/N5CCN(C)CC5)c(O)c4c3C2=O)NC(=O)/C(C)=C\C=C\[C@H](C)[C@H](O)[C@@H](C)[C@@H](O)[C@@H](C)[C@H](OC(C)=O)[C@@H]1C` [Rifampin], the MIC was found to be 0.25 µg/mL in test [1] (setting [4]), 0.5 µg/mL (≈ 0.608 µM) in test [2] (setting [5]) and 0.25 µg/mL (≈ 0.304 µM) in test [3] (setting [6]).

For the molecule `[H]/N=C(/N)N[C@H]1[C@H](O)[C@@H](O)[C@H](O[C@@H]2O[C@@H](C)[C@](O)(C=O)[C@H]2O[C@@H]2O[C@@H](CO)[C@H](O)[C@@H](O)[C@@H]2NC)[C@@H](N/C(N)=N\[H])[C@@H]1O` [Streptomycin], the MIC was determined as 1.5 µg/mL in test [1] (setting [4]), 4 µg/mL (≈ 6.88 µM) in test [2] (setting [5]) and 8 µg/mL (≈ 13.8 µM) in test [3] (setting [6]).

For `CN(C)[C@@H]1C(O)=C(C(N)=O)C(=O)[C@@]2(O)C(O)=C3C(=O)c4c(O)cccc4[C@@](C)(O)[C@H]3C[C@@H]12` [Tetracycline], the MIC was 1.25 µg/mL in test [1] (setting [4]), 6 µg/mL (≈ 13.5 µM) in test [2] (setting [5]) and 12 µg/mL (≈ 27 µM) in test [3] (setting [6]).

On to `CN(C)c1cc(NC(=O)CNC(C)(C)C)c(O)c2c1C[C@H]1C[C@H]3[C@H](N(C)C)C(O)=C(C(N)=O)C(=O)[C@@]3(O)C(O)=C1C2=O` [Tigecycline], for which the MIC in test [1] (NRRLB67744, read-out: NRRL No. B-67744 ug/ml (triplicate)) was found to be 0.064 µg/mL (≈ 0.109 µM); in test [2] (setting [7]), 0.064 µg/mL (≈ 0.109 µM); in test [3] (setting [8]), 0.094 µg/mL (≈ 0.161 µM).

On to `CN[C@H](CC(C)C)C(=O)N[C@H]1C(=O)N[C@@H](CC(N)=O)C(=O)N[C@H]2C(=O)N[C@H]3C(=O)N[C@H](C(=O)N[C@H](C(=O)O)c4cc(O)cc(O)c4-c4cc3ccc4O)[C@H](O)c3ccc(c(Cl)c3)Oc3cc2cc(c3O[C@@H]2O[C@H](CO)[C@@H](O)[C@H](O)[C@H]2O[C@H]2C[C@](C)(N)[C@H](O)[C@H](C)O2)Oc2ccc(cc2Cl)[C@H]1O` [Vancomycin], for which the results for the MIC in test [1] (setting [4]), in test [2] (setting [7]) and in test [3] (setting [8]) were 0.38 µg/mL, 0.75 µg/mL (≈ 0.518 µM) and 0.5 µg/mL (≈ 0.345 µM), respectively.

Consider Gentamicin, for which, in test [1] (MIC of the antibiotic against the strain, triplicate), the “NRRL No. B-67744 ug/ml (triplicate)” value worked out at 0.023 µg/mL. Also, the “NRRL No. B-68054 ug/mL (triplicate), Minimum Inhibitory Concentration” value in test [2] (triplicate) is 0.125 µg/mL. Further, in test [3] (triplicate), the “NRRL No. B-68053 ug/mL (triplicate), Minimum Inhibitory Concentration” value was 0.094 µg/mL.
